Data published in US6495152B2, “Sulfur containing polyhydroxyalkanoate compositions and method of production” (Tepha, Inc., priority 2000, dated 2002).

Experiments:
R. eutropha = assay: Growth experiments in mineral salts medium with sulfur-containing carbon sources; type: cell-based, R. eutropha H16; conditions: for Use as sole carbon source for growth: R. eutropha strain H16
Description: Bacterial strains and culture conditions. R. eutropha H16 (DSM 428) and R. eutropha PHB^−4 (DSM 541) were cultivated in nutrient broth (NB) growth medium or in mineral salts medium (MSM) (Schlegel et al., (1961) Arch. Mikrobiol. 38, 209-222) at 30° C. in Erlenmeyer flasks under aerobic conditions on a rotary shaker with 130 strokes/min. In order to promote PHA accumulation, the ammonia concentration was reduced to 0.05% (w/v). Carbon sources were added from filter-sterilized 20% (w/v) stock solutions at the concentrations indicated in the text.
Bacterial strains and culture conditions. R. eutropha H16 (DSM 428) and R. eutropha PHB-4 (DSM 541) were cultivated in nutrient broth (NB) growth medium or in mineral salts medium (MSM) (Schlegel, 1961, supra) at 30° C. in Erlenmeyer flasks under aerobic conditions on a rotary shaker with 130 strokes/min. In order to promote PHA accumulation, the ammonia concentration was reduced to 0.05% (w/v). Carbon sources were added from filter-sterilized stock solutions at the concentrations indicated in the text.

P. putida = assay: Growth on MSM agar plates containing ATAs as sole carbon sources; type: cell-based, Pseudomonas putida KT2440; parameters: key to Growth on MSM agar plates: +: growth; ++: good growth; −: no growth; *: thiol odor detected; conditions: sole carbon source; for Growth on MSM agar plates: P. putida
Excerpt: (§1) Bacterial strains and culture conditions. The PHA-negative mutant R. eutropha PHB^−4 (DSM 541) and a recombinant strain of R. eutropha PHB^−4 harbouring plasmid pBBR1::phaC1 expressing the PHA synthase 1 of Pseudomonas mendocina, as well as Pseudomonas putida KT2440 (Worsey & Williams, “Metabolism of toluene and xylenes by Pseudomonas putida (arvilla) mt-2: evidence for a new function of the TOL plasmid” in J Bacteriol 124:7-13 (1975)), P. aeruginosa PAO1 (ATCC 15692), P. oleovorans (ATCC 29347), and P. mendocina (DSM 50017) were used. Cultivations were performed in nutrient broth (NB) medium or mineral salts medium (MSM) according to Schlegel (1961), supra, to which different alkylthioalkanoic acids were added as carbon sources from filter-sterilized 10% (w/v) stock solutions at the concentrations indicated in the text. Fed batch cultivations were carried out under aerobic conditions at 30° C. in 2 l Erlenmeyer flasks containing 500 ml of medium which were agitated at 130 r.p.m. In order to promote PHA accumulation, the ammonia concentration was reduced to 0.05% (w/v) in MSM.
(§2) Growth and PHA accumulation of bacteria on alkylthioalkanoic acids. To evaluate the capabilities of various pseudomonades to use alkylthioalkanoic acids (ATAs) as carbon and energy sources for the synthesis of sulfur containing PHAs, growth experiments were carried out employing MSM agar plates which contained propylthioundecanoic acid (PTUD), propylthiooctanoic acid (PTO), octylthiohexanoic acid (OTHx), butylthiovaleric acid (BTV), or propylthiopropionic acid (PTP) as carbon sources.

P. mendocina = assay: as above; type: cell-based, Pseudomonas mendocina; parameters: key: +: growth; ++: good growth; −: no growth; *: thiol odor detected; conditions: sole carbon source
Excerpt: as §1, §2

P. aeruginosa = assay: as above; type: cell-based, Pseudomonas aeruginosa PAO1; parameters: key: +: growth; ++: good growth; −: no growth; *: thiol odor detected; conditions: sole carbon source
Excerpt: as §1, §2

P. oleovorans = assay: as above; type: cell-based, Pseudomonas oleovorans; parameters: key: +: growth; ++: good growth; −: no growth; *: thiol odor detected; conditions: sole carbon source
Excerpt: as §1, §2

Pseudomonas strains = assay: Growth experiments of pseudomonades on alkylthioalkanoic acids; type: cell-based; conditions: for Use as sole carbon source for growth: all Pseudomonas strains investigated; for Concentration above which cell growth was impaired: pseudomonades
Excerpt: as §1, §2

[1] = system: R. eutropha PHB-4 harboring pBBR1::phaC1; assay: Growth in MSM containing PTO as the sole carbon source; type: cell-based
Excerpt: as §1
Since growth of R. eutropha PHB-4 harboring pBBR1::phaC1 in MSM containing PTO as the sole carbon source was very poor, cultivations were carried out in complex medium (NB) or in MSM containing sodium gluconate as second utilizable carbon source in addition to PTO. […]

## O=C(O)CCS [3-mercaptopropionic acid]
R. eutropha
  Use as sole carbon source for growth: not able to use
R. eutropha; mineral salts medium plus readily utilized carbon source such as gluconic acid, R. eutropha and other bacteria
  Concentration in the medium above which growth was impaired: higher than 0.1 % (w/v)

## propylthioundecanoic acid [PTUD]
P. putida; P. putida KT2440
  Growth in comparison to other pseudomonades: significantly lower
P. putida; 0.4% (w/v)
  Growth on MSM agar plates: +*
P. mendocina; 0.4% (w/v)
  Growth on MSM agar plates: ++*
P. aeruginosa; 0.4% (w/v)
  Growth on MSM agar plates: ++*
P. oleovorans; 0.4% (w/v)
  Growth on MSM agar plates: ++*
Pseudomonas strains
  Use as sole carbon source for growth: able to use

## propylthiooctanoic acid [PTO]
P. putida; 0.4% (w/v)
  Growth on MSM agar plates: +
P. mendocina; 0.4% (w/v)
  Growth on MSM agar plates: ++
P. aeruginosa; 0.4% (w/v)
  Growth on MSM agar plates: +
P. oleovorans; 0.4% (w/v)
  Growth on MSM agar plates: +
Pseudomonas strains
  Use as sole carbon source for growth: able to use
  Concentration above which cell growth was impaired: higher than 0.8 % (w/v)
[1]
  Growth with the substance as the sole carbon source: very poor

## octylthiohexanoic acid [OTHx]
P. putida; 0.6% (w/v)
  Growth on MSM agar plates: ++
P. mendocina; 0.6% (w/v)
  Growth on MSM agar plates: ++
P. aeruginosa; 0.6% (w/v)
  Growth on MSM agar plates: ++
P. oleovorans; 0.6% (w/v)
  Growth on MSM agar plates: ++
Pseudomonas strains
  Use as sole carbon source for growth: able to use

## propylthiopropionic acid [PTP]
P. putida; 0.2% (w/v)
  Growth on MSM agar plates: −
P. mendocina; 0.2% (w/v)
  Growth on MSM agar plates: −
P. aeruginosa; 0.2% (w/v)
  Growth on MSM agar plates: −
P. oleovorans; 0.2% (w/v)
  Growth on MSM agar plates: −
Pseudomonas strains
  Use as sole carbon source for growth: not used by any bacterium for growth

## CCCCSCCCCC(=O)O [BTV]
P. putida; 0.3% (w/v)
  Growth on MSM agar plates: +*
P. mendocina; 0.3% (w/v)
  Growth on MSM agar plates: +*
P. aeruginosa; 0.3% (w/v)
  Growth on MSM agar plates: +*
P. oleovorans; 0.3% (w/v)
  Growth on MSM agar plates: +*
Pseudomonas strains
  Use as sole carbon source for growth: able to use
  Concentration above which cell growth was impaired: > 0.4 % (w/v)

## O=C(O)CCSCCC(=O)O [TDP, 3,3′-thiodipropionic acid]
R. eutropha
  Use as sole carbon source for growth: not able to use
R. eutropha; mineral salts medium plus readily utilized carbon source such as gluconic acid
  Concentration up to which no toxic effects on growth were exerted: ≤ 1.5 % (w/v)

## CC(S)CC(=O)O (stereo not shown) [3-mercaptobutyric acid]
R. eutropha
  Use as sole carbon source for growth: not able to use
